Experimental data: patent US9624242B2, “11-2(2-pyrrolidin-1-yl-ethoxy)-14,19-dioxa-5,7,26-triaza-tetracyclo[19.3.1.1(2,6).1(8,12)]heptacosa-1(25),2(26),3,5,8,10,12(27),16,21,23-decaene citrate salt” (CTI BIOPHARMA CORP., priority 2008, dated 2017)
Counter-ions that a name gives are not always drawn. Like-named read-outs stand apart in the source and are kept apart here.

Experiments:
Type in all cases: physicochemical
[1] = Solid form analysis of salt batches (XRPD, DSC, TGA, GVS)
Excerpt: Initial studies into compound I involved analysis of the hydrochloride salt. It was found as summarised in Table 1 below, that the initially prepared hydrochloride salt produces an inconsistent solid form with significant variability in the DSC, TGA, GVS and XRPD pattern (see FIGS. 1 to 16).
The samples of both hydrochloride (comparative) and citrate salts were subjected to X-ray diffraction to determine the characteristic X-ray diffraction pattern. The conditions used were as follows: X-Ray Powder Diffraction patterns were collected on a Siemens D5000 diffractometer using Cu Kα radiation (40 kV, 40 mA), θ-θ goniometer, divergence of V20 and receiving slits, a graphite secondary monochromator and a scintillation counter. The instrument is performance checked using a certified Corundum standard (NIST 1976).
Samples run under ambient conditions were prepared as flat plate specimens using powder as received. Approximately 35 mg of the sample was gently packed into a cavity cut into polished, zero-background (510) silicon wafer. The sample was rotated in its own plane during analysis. The details of the data collection are: • Angular range: 2 to 42°2θ • Step size: 0.05°2θ • Collection time: 4 s·step^1.
Alternatively, X-Ray Powder Diffraction patterns were collected on a Bruker AXS C2 GADDS diffractometer using Cu Kα radiation (40 kV, 40 mA), automated XYZ stage, laser video microscope for auto-sample positioning and a HiStar 2-dimensional area detector. X-ray optics consists of a single Gabel multilayer mirror coupled with a pinhole collimator of 0.3 mm. The beam divergence, i.e. the effective size of the X-ray beam on the sample, was approximately 4 mm. A θ-θ continuous scan mode was employed with a sample-detector distance of 20 cm which gives an effective 2θ range of 3.2°-29.7°. Typically the sample would be exposed to the X-ray beam for 120 seconds.
Samples run under ambient conditions were prepared as flat plate specimens using powder as received without grinding. Approximately 1-2 mg of the sample was lightly pressed on a glass slide to obtain a flat surface.

[2] = Thermal gravimetric analysis (TGA); conditions: for TGA weight loss before degradation / melt with decomposition: result in words
Experimental: The samples of both hydrochloride (comparative) and citrate salts were subjected to thermal gravimetric analysis and differential scanning calorimetry under the following conditions. DSC data were collected on a TA Instruments Q2000 equipped with a 50 position auto-sampler. The instrument was calibrated for energy and temperature calibration using certified indium. Typically 0.5-3 mg of each sample, in a pin-holed aluminium pan, was heated at 10° C.·min^−1 from 25° C. to 270° C.
TGA data were collected on a TA Instruments Q500 TGA, equipped with a 16 position auto-sampler. The instrument was temperature calibrated using certified Alumel. Typically 5-30 mg of each sample was loaded onto a pre-tared platinum crucible and aluminium DSC pan, and was heated at 10° C.·min^−1 from ambient temperature to 300° C. A nitrogen purge at 60 ml·min^−1 was maintained over the sample. The instrument control software was Thermal Advantage v4.6.6 and the data were analysed using Universal Analysis v4.3A. Alternatively, TGA data were collected on a Mettler TGA/SDTA 851e equipped with a 34 position auto-sampler. The instrument was temperature calibrated using certified indium. Typically 5-30 mg to of each sample was loaded onto a pre-weighed aluminium crucible and was heated at 10° C.·min^−1 from ambient temperature to 300° C. A nitrogen purge at 50 ml·min^−1 was maintained over the sample. The instrument control and data analysis software was STARe v9.01.

[3] = Variable temperature X-ray diffraction
Experimental: Samples run under non-ambient conditions were mounted on a silicon wafer with heat-conducting compound. The sample was then heated to the appropriate temperature at ca. 10° C.·min^−1 and subsequently held isothermally for ca 2 minutes before data collection was initiated.
In order to probe the stability of the samples of the citrate salts variable temperature X-ray diffraction was carried out. Thus, the salts were scanned under X-ray diffraction conditions at a series of temperatures and the characteristic peaks determined.

[4] = Gravimetric Vapour Sorption (GVS) with post-GVS XRPD; conditions: for solid form / XRPD pattern post GVS compared with before: XRPD after GVS experiment; for GVS mass lost on going to dryness: from 90% RH to dryness; for GVS mass gain: from 40% RH to 90% RH
[5] = Karl-Fischer analysis
[6] = Stress tests at elevated temperature and humidity, analysed by XRPD
Experimental: The group three material was stressed under conditions which might cause it is to convert to group one material or, indeed, another hydrated or polymorphic form. Thus samples were stored at 40° C./75% RH and also at 60° C./96% RH and analysed at regular intervals by XRPD.
The stability of the citrate salt group A material was tested in harsher conditions, when the samples were kept for a week in a humidity chamber at 60° C. and 96% RH.

[7] = Maturation of citrate salt in 27 solvents, solids analysed by XRPD
Experimental: In order to determine the propensity of polymorphism for the citrate salt the group A material was maturated in 27 different solvents. A small amount of solid was slurried with the corresponding solvent (see Table 4 below) and stored in the incubator and subjected to 4 h-heat/cool cycles at 50° C./r.t. for 24 h. The solvents were then removed under vacuum, and the remaining solids analysed by XRPD.

[8] = hydrochloride salt batches, hydrochloride

Structure (SMILES): C1=C/COCc2cc(ccc2OCCN2CCCC2)Nc2nccc(n2)-c2cccc(c2)COC/1 [Batch Citrate 1, 11-(2-pyrrolidin-1-yl-ethoxy)-14,19-dioxa-5,7,26-triaza-tetracyclo[19.3.1.1(2,6).1(8,12)]heptacosa-1(25),2(26),3,5,8,10,12(27),16,21,23-decaene]
- Solid Form Comment ([1]; citrate salt batches): Group A
- decomposition / degradation temperature in TGA [2]: 180 °C
- TGA weight loss before degradation / melt with decomposition [2]: no weight loss
- change of X-ray diffraction pattern with temperature [3]: no change irrespective of the temperature
- solid form / XRPD pattern post GVS compared with before [4]: no change
- GVS water taken up ([4]; between 0 and 90% RH): less than 0.8%
- hygroscopicity ([4]; result in words): low hygroscopicity

Structure (SMILES): C1=CCOCc2cc(ccc2OCCN2CCCC2)Nc2nccc(n2)-c2cccc(c2)COC1.Cl [Batch HCl 1, 11-(2-pyrrolidin-1-yl-ethoxy)-14,19-dioxa-5,7,26-triaza-tetracyclo[19.3.1.1(2,6).1(8,12)]heptacosa-1(25),2(26),3,5,8,10,12(27),16,21,23-decaene hydrochloride]
- Solid Form Comment [1, 8]: Group 1 + 3 + amorphous
- equivalents of water corresponding to TGA weight loss ([2]; hydrochloride): 1.4 equivalents of water
- TGA two stage weight loss, total ([2]; up to 100° C.): 4.5%
- GVS adsorption of water in the initial adsorption cycle ([4]; at 90% RH): 5.5%
- GVS mass lost on going to dryness ([4]; hydrochloride): 5%
- GVS mass regained ([4]; from dryness to 40% RH): 2%
- GVS total gain ([4]; whole GVS cycle): 2%

Structure (SMILES): C1=CCOCc2cc(ccc2OCCN2CCCC2)Nc2nccc(n2)-c2cccc(c2)COC1.Cl [Batch HCl 2, 11-(2-pyrrolidin-1-yl-ethoxy)-14,19-dioxa-5,7,26-triaza-tetracyclo[19.3.1.1(2,6).1(8,12)]heptacosa-1(25),2(26),3,5,8,10,12(27),16,21,23-decaene hydrochloride]
- Solid Form Comment [1, 8]: Predominately Group 1
- decomposition / degradation temperature in TGA [2]: 260 °C
- water lost in the first phase of the TGA ([2]; hydrochloride): 5.6%
- equivalents of water corresponding to TGA weight loss ([2]; hydrochloride): 1.67 equivalents of water

Structure (SMILES): C1=CCOCc2cc(ccc2OCCN2CCCC2)Nc2nccc(n2)-c2cccc(c2)COC1.Cl [Batch HCl 3, 11-(2-pyrrolidin-1-yl-ethoxy)-14,19-dioxa-5,7,26-triaza-tetracyclo[19.3.1.1(2,6).1(8,12)]heptacosa-1(25),2(26),3,5,8,10,12(27),16,21,23-decaene hydrochloride]
- equivalents of water by Karl-Fischer analysis [5]: 1.1 equivalents
- water content by Karl-Fischer analysis [5]: 3.79%
- Solid Form Comment [1, 8]: Group 1 + 3 + little amorphous
- decomposition / degradation temperature in TGA [2]: 260 °C
- total weight lost in the TGA [2]: 3.4%
- another loss in TGA ([2]; at 165° C.): 1.97%
- water lost in the first phase of the TGA ([2]; hydrochloride): 1.5%
- equivalents of water corresponding to TGA weight loss ([2]; hydrochloride): 0.5 equivalents of water

Structure (SMILES): C1=CCOCc2cc(ccc2OCCN2CCCC2)Nc2nccc(n2)-c2cccc(c2)COC1.Cl [Batch HCl 4, 11-(2-pyrrolidin-1-yl-ethoxy)-14,19-dioxa-5,7,26-triaza-tetracyclo[19.3.1.1(2,6).1(8,12)]heptacosa-1(25),2(26),3,5,8,10,12(27),16,21,23-decaene hydrochloride]
- Solid Form Comment [1, 8]: Group 1
- TGA mass loss ([2]; between ambient and 108° C.): 6.5%
- solid form / XRPD pattern post GVS compared with before ([4]; hydrochloride): unchanged
- GVS mass gain [4]: 1.6%
- GVS mass lost on going to dryness ([4]; hydrochloride): 2.8%

Structure (SMILES): C1=CCOCc2cc(ccc2OCCN2CCCC2)Nc2nccc(n2)-c2cccc(c2)COC1.Cl [Batch HCl 5, 11-(2-pyrrolidin-1-yl-ethoxy)-14,19-dioxa-5,7,26-triaza-tetracyclo[19.3.1.1(2,6).1(8,12)]heptacosa-1(25),2(26),3,5,8,10,12(27),16,21,23-decaene hydrochloride]
- Solid Form Comment [1, 8]: Group 2

Structure (SMILES): C1=CCOCc2cc(ccc2OCCN2CCCC2)Nc2nccc(n2)-c2cccc(c2)COC1.Cl [Batch HCl 6, 11-(2-pyrrolidin-1-yl-ethoxy)-14,19-dioxa-5,7,26-triaza-tetracyclo[19.3.1.1(2,6).1(8,12)]heptacosa-1(25),2(26),3,5,8,10,12(27),16,21,23-decaene hydrochloride]
- Solid Form Comment [1, 8]: Group 3
- decomposition / degradation temperature in TGA ([2]; hydrochloride): around 240 °C
- TGA weight loss before degradation / melt with decomposition [2]: very little weight loss
- solid form / XRPD pattern post GVS compared with before ([4]; hydrochloride): unchanged
- GVS mass gain [4]: 1.6%
- GVS mass lost on going to dryness ([4]; hydrochloride): 2.4%

Structure (SMILES): C1=C/COCc2cc(ccc2OCCN2CCCC2)Nc2nccc(n2)-c2cccc(c2)COC/1 [citrate salt group A material, 11-(2-pyrrolidin-1-yl-ethoxy)-14,19-dioxa-5,7,26-triaza-tetracyclo[19.3.1.1(2,6).1(8,12)]heptacosa-1(25),2(26),3,5,8,10,12(27),16,21,23-decaene]
- change of crystalline pattern (XRPD) after stress ([6]; one week in humidity chamber at 60° C. and 96% RH): no changes are observed
- Solid Form after maturation ([7]; 1,4-dioxane): Form A
- Solid Form after maturation ([7]; 1-butanol): Form A
- Solid Form after maturation ([7]; 1-pentanol): Form A
- Solid Form after maturation ([7]; 1-propanol): Form A
- Solid Form after maturation ([7]; 2-butanol): Form A
- Solid Form after maturation ([7]; 2-methoxy ethanol): Form A
- Solid Form after maturation ([7]; 3-methyl-1-butanol): Form A
- solid forms identified after maturation ([7]; 27 different solvents, 4 h heat/cool cycles 50° C./r.t. for 24 h): only one solid form
- Solid Form after maturation ([7]; Acetonitrile): Form A
- Solid Form after maturation ([7]; Cyclohexane): Form A
- Solid Form after maturation ([7]; DMSO): Form A
- Solid Form after maturation ([7]; Dicloro-methane): Form A
- Solid Form after maturation ([7]; Ethanol): Form A
- Solid Form after maturation ([7]; Ethyl acetate): Form A
- Solid Form after maturation ([7]; Heptane): Form A
- Solid Form after maturation ([7]; IPA): Form A
- Solid Form after maturation ([7]; Isobutyl acetate): Form A
- Solid Form after maturation ([7]; Isopropyl acetate): Form A
- Solid Form after maturation ([7]; Methyl isobutyl ketone): Form A
- Solid Form after maturation ([7]; Methylethyl ketone): Form A
- Solid Form after maturation ([7]; Nitromethane): Form A
- Solid Form after maturation ([7]; Propyl acetate): Form A
- Solid Form after maturation ([7]; TBME): Form A
- Solid Form after maturation ([7]; Tetrahydro furan): Form A
- Solid Form after maturation ([7]; Toluene): Form A
- Solid Form after maturation ([7]; Water): Form A
- Solid Form after maturation ([7]; acetone): Form A
- Solid Form after maturation ([7]; methanol): Form A

Structure (SMILES): C1=CCOCc2cc(ccc2OCCN2CCCC2)Nc2nccc(n2)-c2cccc(c2)COC1.Cl [group 3 hydrochloride, 11-(2-pyrrolidin-1-yl-ethoxy)-14,19-dioxa-5,7,26-triaza-tetracyclo[19.3.1.1(2,6).1(8,12)]heptacosa-1(25),2(26),3,5,8,10,12(27),16,21,23-decaene hydrochloride]
- solid form by XRPD after stress (Comment) ([6]; 40° C./75% RH, 0 hrs): Group three
- solid form by XRPD after stress (Comment) ([6]; 40° C./75% RH, 24 hrs): Group three
- solid form by XRPD after stress (Comment) ([6]; 40° C./75% RH, 48 hrs): Group three
- solid form by XRPD after stress (Comment) ([6]; 40° C./75% RH, 72 hrs): Group one
- solid form by XRPD after stress (Comment) ([6]; 60° C./96% RH, 0 hrs): Group three
- solid form by XRPD after stress (Comment) ([6]; 60° C./96% RH, 24 hrs): Group one
